# Assay results as given in patent publication US20110163045A1, “METHOD AND SYSTEM FOR TREATING CONTAMINATED WATER” (Ramot at Tel-Aviv University Ltd., priority 2008, published 2011).
# “And” between values parts separate entries of the source, which are not always exact repeats. Identical values can stand only once. Like-named read-outs stand apart in the source and are kept apart here.
# Experiments:
# [1] = Direct UV photolytic degradation of single contaminants in deionized water (collimated beam MP Hg lamp, HPLC/MS/MS); assay type: physicochemical; settings: for UV dose for 90% degradation: polychromatic UV 200-400 nm; for pH dependence of rate constant (k) for photolytic degradation: FIG. 21 and FIG. 23, in words; for Optimal pH for photodegradation: UV direct photolysis
# Method: Solutions of tested contaminants were prepared by dissolving one or more contaminant in 150 ml deionized water (DI) at a concentration of 1 mg/l for each contaminant. The solution was then placed into an open 90×50 mm crystallization dish. […] No. 7830-61, from Ace Glass Inc.) housed in a bench scale collimated beam apparatus. […] 0.5 ml samples were removed from the irradiated solution at selected time intervals in order to measure the concentration of the remaining contaminant. Samples were measured in a 1100-Finnigan LCQ HPLC/MS/MS (high performance liquid chromatography/tandem mass spectrometry) apparatus (Agilent), in order to obtain a chromatogram for the sample. The concentration was expressed as the area of the peak observed in the HPLC/MS/MS chromatogram. The degradation kinetics were expressed as a logarithm of the ratio of the concentration (CH) remaining following a dose H of irradiation to initial concentration (C0). Such a logarithm decreased in a linear manner as a function of the dose, as follows: […] The data were fitted using a linear regression approach (with R^2>0.9) resulting in pseudo-first order reaction kinetics which reflect the difference in photodegradation between samples.
# [2] = cited from earlier work
# [3] = Direct UV photolytic degradation of SMX in synthetic effluent water; assay type: physicochemical
# Method: Solutions of tested contaminants were prepared by dissolving one or more contaminant in 150 ml deionized water (DI) at a concentration of 1 mg/l for each contaminant. The solution was then placed into an open 90×50 mm crystallization dish.
# The aqueous solution was stirred continuously for the duration of the experiment, and irradiated using a 0.45 kW polychromatic medium-pressure (MP) Hg vapor lamp (Ace-Hanovia Lamp Cat. No. 7830-61, from Ace Glass Inc.) housed in a bench scale collimated beam apparatus. The polychromatic irradiation was at ultraviolet (UV) wavelengths in a range of 200-400 nm.
# 0.5 ml samples were removed from the irradiated solution at selected time intervals in order to measure the concentration of the remaining contaminant. Samples were measured in a 1100-Finnigan LCQ HPLC/MS/MS (high performance liquid chromatography/tandem mass spectrometry) apparatus (Agilent), in order to obtain a chromatogram for the sample. The concentration was expressed as the area of the peak observed in the HPLC/MS/MS chromatogram.
# The data were fitted using a linear regression approach (with R^2>0.9) resulting in pseudo-first order reaction kinetics which reflect the difference in photodegradation between samples. The constant k (cm^2/mJ), the degradation rate fluence-based constant, was calculated as the negative slope obtained when the degradation was plotted logarithmically as described hereinabove.
# The UV dose required for 90% degradation of the tested contaminants was calculated using the obtained value for k, by inserting the appropriate numbers into the above equation: […]
# Synthetic wastewater was prepared as described in Seo et al. and diluted with deionized water to obtain a 70% transmittance at 254 nm, which is typical for wastewater effluents treated by UV irradiation.
# [4] = 5 mg/L hydrogen peroxide, UV fluence of 50 mJ/cm^2; cited from earlier work
# [5] = cited from earlier work; remark: listed apart in the source
# [6] = UV fluence of 1000 mJ/cm^2, pH 7.5, 254 nm; cited from earlier work
# [7] = cited from earlier work; remark: listed apart in the source
# [8] = least favorable tested pH vs optimal pH, deionized water
smiles,measurement,setting,value
"CC1(C)S[C@@H]2[C@H](NC(=O)[C@H](N)c3ccccc3)C(=O)N2[C@H]1C(=O)O [AMP, ampicillin]",pH dependence of photolytic degradation,"[1]; deionized water, in words",more rapid at a pH of 8 than at a pH of 7 or 6
same,Reduction in UV dose,[1]; [8],33.4%
same,UV dose for 90% degradation,"[1]; pH 6, deionized water, 1 mg/l",2875 mJ/cm^2
same,UV dose for 90% degradation,"[1]; pH 7, deionized water, 1 mg/l",2875 mJ/cm^2
same,UV dose for 90% degradation,"[1]; pH 8, deionized water, 1 mg/l",1916 mJ/cm2
"CN(C)[C@@H]1C(O)=C(C(N)=O)C(=O)[C@@]2(O)C(O)=C3C(=O)c4c(O)cccc4[C@@](C)(O)[C@H]3[C@H](O)[C@@H]12 [OTC, oxytetracycline]",pH dependence of rate constant (k) for photolytic degradation,[1]; deionized water,higher at a pH of 7 than at a pH of 5
same,pH dependence of photolytic degradation,"[1]; deionized water, in words",more rapid at a pH of 7 than at a pH of 5
same,UV dose for 90% degradation,"[1]; pH 5, deionized water, 1 mg/l",5750 mJ/cm^2
same,UV dose for 90% degradation,"[1]; pH 6, deionized water, 1 mg/l",2556 mJ/cm^2
same,UV dose for 90% degradation,"[1]; pH 7, deionized water, 1 mg/l",1643 mJ/cm^2
same,Degradation in mixture,"30 min, pH 5",54%
same,Degradation in mixture,60 min,91%
same,"Degradation in mixture without change of pH, by extrapolation","60 min, pH 5",81%
"NC(=O)N1c2ccccc2C=Cc2ccccc21 [CPZ, Carbamazepine]",Relevant pKa,[2],13
same,pH dependence of photolytic degradation,"[1]; deionized water, in words",more rapid at a pH of 8 than at a pH of 6
same,Reduction in UV dose,[1]; [8],66.6%
same,UV dose for 90% degradation,"[1]; pH 6, deionized water, 1 mg/l",23000 mJ/cm^2
same,UV dose for 90% degradation,"[1]; pH 7, deionized water, 1 mg/l",11500 mJ/cm^2
same,UV dose for 90% degradation,"[1]; pH 8, deionized water, 1 mg/l",7667 mJ/cm2
"CCN1CCN(c2cc3c(cc2F)c(=O)c(C(=O)O)cn3C2CC2)CC1 [ENR, enrofloxacin]",Relevant pKa,[2],5.94
same,pH dependence of photolytic degradation,"[1]; deionized water, in words",more rapid at a pH of 7 than at a pH of 5
same,Reduction in UV dose,[1]; [8],68.2%
same,UV dose for 90% degradation,"[1]; pH 5, deionized water, 1 mg/l",3286 mJ/cm^2
same,UV dose for 90% degradation,"[1]; pH 6, deionized water, 1 mg/l",2300 mJ/cm^2
same,UV dose for 90% degradation,"[1]; pH 7, deionized water, 1 mg/l",1045 mJ/cm^2
"COc1cc(NS(=O)(=O)c2ccc(N)cc2)nc(OC)n1 [SMT, sulfadimethoxine]",Relevant pKa,[2],6.08
same,Optimal pH for photodegradation,[1],5
same,pH dependence of rate constant (k) for photolytic degradation,[1]; deionized water,higher at a relatively low pH (pH 5)
same,pH dependence of photolytic degradation,"[1]; deionized water, in words",more rapid at a pH of 5 than at a pH of 7
same,Reduction in UV dose,[1]; [8],58.3%
same,UV dose for 90% degradation,"[1]; pH 5, deionized water, 1 mg/l",2400 mJ/cm^2
same,UV dose for 90% degradation,"[1]; pH 6, deionized water, 1 mg/l",3300 mJ/cm^2
same,UV dose for 90% degradation,"[1]; pH 7, deionized water, 1 mg/l",5750 mJ/cm^2
"COc1cc(Cc2cnc(N)nc2N)cc(OC)c1OC [TMP, Trimethoprim]",Enhancement of photolysis rate,"[1]; changing the pH value from 6 to 8, deionized water",more than 12 fold
same,pH dependence of rate constant (k) for photolytic degradation,[1]; deionized water,higher at a relatively high pH (pH 7 or 8)
same,pH dependence of photolytic degradation,"[1]; deionized water, in words",more rapid at a pH of 8 than at a pH of 6
same,Reduction in UV dose,[1]; [8],95% and 95.4%
same,UV dose for 90% degradation,"[1]; pH 6, deionized water, 1 mg/l",23000 mJ/cm^2
same,UV dose for 90% degradation,"[1]; pH 7, deionized water, 1 mg/l",3833 mJ/cm^2
same,UV dose for 90% degradation,"[1]; pH 8, deionized water, 1 mg/l",1770 mJ/cm2
"Cc1cc(NS(=O)(=O)c2ccc(N)cc2)no1 [SMX, sulfamethoxazole]",UV dose for 90% degradation,"[3]; pH 7, synthetic effluent water",1643 mJ/cm^2
same,Reduction in UV dose,"[3]; pH 7 vs pH 5, synthetic effluent water",80.8%
same,pH dependence of photolytic degradation,"[3]; synthetic effluent water, in words",more rapid at a pH of 5 than at a pH of 7
same,Optimal pH for photodegradation,[1],5
same,pH dependence of rate constant (k) for photolytic degradation,[1]; deionized water,higher at a pH of 5 than at a pH of 7
same,pH dependence of photolytic degradation,"[1]; deionized water, in words",more rapid at a pH of 5 than at a pH of 7
same,Reduction in UV dose,[1]; [8],73.4%
same,Irradiation time for 90% degradation,"[1]; pH 5, deionized water",approximately 4 minutes
same,UV dose for 90% degradation,"[1]; pH 6, deionized water, 1 mg/l",590 mJ/cm^2
same,Irradiation time for 90% degradation,"[1]; pH 7, deionized water",approximately 12 minutes
same,Degradation in mixture,"30 min, pH 5",98.4%
"CC1(C)S[C@@H]2[C@H](NC(=O)[C@H](N)c3ccc(O)cc3)C(=O)N2[C@H]1C(=O)O [AMX, Amoxicillin]",Relevant pKa,[2],6.9
same,pH dependence of rate constant (k) for photolytic degradation,[1]; deionized water,higher at a relatively high pH (pH 7 or 8)
same,pH dependence of photolytic degradation,"[1]; deionized water, in words",more rapid at a pH of 7 or 8 than at a pH of 6
same,Reduction in UV dose,[1]; [8],36.4%
same,UV dose for 90% degradation,"[1]; pH 6, deionized water, 1 mg/l",3285 mJ/cm^2
same,UV dose for 90% degradation,"[1]; pH 7, deionized water, 1 mg/l",2090 mJ/cm^2
same,UV dose for 90% degradation,"[1]; pH 8, deionized water, 1 mg/l",2090 mJ/cm2
"CN(C)[C@@H]1C(O)=C(C(N)=O)C(=O)[C@@]2(O)C(O)=C3C(=O)c4c(O)cccc4[C@@](C)(O)[C@H]3C[C@@H]12 [TC, Tetracycline]",pH dependence of rate constant (k) for photolytic degradation,[1]; deionized water,higher at a relatively high pH (pH 7 or 8)
same,pH dependence of photolytic degradation,"[1]; deionized water, in words",more rapid at a pH of 7 than at a pH of 5
same,UV dose for 90% degradation,"[1]; pH 5, deionized water, 1 mg/l",8000 mJ/cm^2
same,UV dose for 90% degradation,"[1]; pH 6, deionized water, 1 mg/l",2300 mJ/cm^2
same,UV dose for 90% degradation,"[1]; pH 7, deionized water, 1 mg/l",1200 mJ/cm^2
"Oc1nc(Cl)c(Cl)cc1Cl [TCP, 3,5,6-trichloro-2-pyridinol]",Degradation of TCP via indirect photolytic process,[4],50%
same,Degradation of TCP via direct photolytic process,[5]; UV fluence of 50 mJ/cm^2,approximately 40%
same,"Photodegradation rate, constant maximum value",[5]; pH 5,6.40×10^−3 cm^2 mJ^−1
"O=C(O)c1cn(C2CC2)c2cc(N3CCNCC3)c(F)cc2c1=O [CPR, Ciprofloxacin]",pH dependence of rate constant (k) for photolytic degradation,[1]; deionized water,higher at a pH of 7 than at a pH of 5
same,pH dependence of photolytic degradation,"[1]; deionized water, in words",more rapid at a pH of 7 than at a pH of 5
same,Reduction in UV dose,[1]; [8],80.7%
same,UV dose for 90% degradation,"[1]; pH 5, deionized water, 1 mg/l",2091 mJ/cm^2
same,UV dose for 90% degradation,"[1]; pH 6, deionized water, 1 mg/l",742 mJ/cm^2
same,UV dose for 90% degradation,"[1]; pH 7, deionized water, 1 mg/l",403 mJ/cm^2
same,Degradation in mixture,"30 min, pH 5",26%
same,Degradation in mixture,60 min,96%
same,"Degradation in mixture without change of pH, by extrapolation","60 min, pH 5",53%
CCc1cccc(C)c1N(C(=O)CCl)C(C)COC (stereo not shown) [metolachlor],Fraction degraded,[6],Approximately half
"CC(COc1ccc(Oc2ccccc2)cc1)Oc1ccccn1 (stereo not shown) [PRX, pyriproxyfen]",pH dependence of photolytic degradation,[1]; 1 mg/l,more rapid at a pH of 5 than at a pH of 3
same,UV dose for 90% removal,"[1]; pH 3, deionized water",2555.6 mJ/cm^2
same,UV dose for 90% removal,"[1]; pH 4, deionized water",1352.9 mJ/cm^2
same,UV dose for 90% removal,"[1]; pH 5, deionized water",1277.8 mJ/cm^2
same,Reduction in UV dose,"[1]; tested pH 3-5, deionized water",50%
"CCn1cc(C(=O)O)c(=O)c2cc(F)c(N3CCNCC3)cc21 [NOR, norfloxacin]",Relevant pKa,[2],8.4
same,pH dependence of rate constant (k) for photolytic degradation,[1]; deionized water,higher at a relatively high pH (pH 7 or 8)
same,pH dependence of photolytic degradation,"[1]; deionized water, in words",more rapid at a pH of 7 than at a pH of 5
same,Reduction in UV dose,[1]; [8],84.7%
same,UV dose for 90% degradation,"[1]; pH 5, deionized water, 1 mg/l",4600 mJ/cm^2
same,UV dose for 90% degradation,"[1]; pH 6, deionized water, 1 mg/l",2091 mJ/cm^2
same,UV dose for 90% degradation,"[1]; pH 7, deionized water, 1 mg/l",697 mJ/cm^2
Cc1ncc([N+](=O)[O-])n1CCO [metronidazole],Relevant pKa,[2],2.4
same,Dependency of direct UV photolysis on solution pH,[7]; pH 3-9.5,no significant dependency
same,Removal efficiency of direct photolysis,[7]; pH 6,low removal efficiency
